One assay addresses Cathepsin B (Homo sapiens, UniProt P07858). Description: Inhibitory concentration against human cathepsin B.
For assay [1], the target named is T1, Cathepsin K (Homo sapiens, UniProt P43235).
T1 sequence (P43235 whole entry): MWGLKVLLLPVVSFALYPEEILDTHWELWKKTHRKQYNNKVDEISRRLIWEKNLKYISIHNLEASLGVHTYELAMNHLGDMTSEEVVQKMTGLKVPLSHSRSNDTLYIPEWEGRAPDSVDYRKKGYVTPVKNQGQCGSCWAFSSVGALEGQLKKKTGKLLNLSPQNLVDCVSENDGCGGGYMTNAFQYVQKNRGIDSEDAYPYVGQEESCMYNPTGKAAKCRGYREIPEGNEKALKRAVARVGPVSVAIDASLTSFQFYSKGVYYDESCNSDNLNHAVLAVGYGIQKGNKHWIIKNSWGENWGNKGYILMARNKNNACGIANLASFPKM
In words: Inhibitory concentration against human cathepsin K.

The target of assay [2] is Cathepsin K (Oryctolagus cuniculus, UniProt P43236). Description: Inhibitory concentration against humanized rabbit cathepsin K.
Another assay deals with Procathepsin L (Homo sapiens, UniProt P07711). Description: Inhibitory concentration against human cathepsin L.
The target of another assay is Cathepsin S (Homo sapiens, UniProt P25774). Description: Inhibitory concentration against human cathepsin S.
The nature of assay [3]: Compound was evaluated for its increased potency in bone resorption assay. In kind it is functional.

Each structure is given as a SMILES string.

Chain of Procathepsin L (P07711 whole entry): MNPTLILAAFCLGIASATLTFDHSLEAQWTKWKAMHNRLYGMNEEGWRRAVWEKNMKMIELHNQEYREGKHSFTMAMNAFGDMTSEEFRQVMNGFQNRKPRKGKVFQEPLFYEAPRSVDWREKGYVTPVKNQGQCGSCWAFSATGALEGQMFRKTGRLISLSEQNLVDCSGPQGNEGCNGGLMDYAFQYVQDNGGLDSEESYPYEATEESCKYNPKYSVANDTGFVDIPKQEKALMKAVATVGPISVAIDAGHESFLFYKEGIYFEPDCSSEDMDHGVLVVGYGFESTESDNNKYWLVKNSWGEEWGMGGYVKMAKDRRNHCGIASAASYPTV
Chain of Cathepsin S (P25774 whole entry): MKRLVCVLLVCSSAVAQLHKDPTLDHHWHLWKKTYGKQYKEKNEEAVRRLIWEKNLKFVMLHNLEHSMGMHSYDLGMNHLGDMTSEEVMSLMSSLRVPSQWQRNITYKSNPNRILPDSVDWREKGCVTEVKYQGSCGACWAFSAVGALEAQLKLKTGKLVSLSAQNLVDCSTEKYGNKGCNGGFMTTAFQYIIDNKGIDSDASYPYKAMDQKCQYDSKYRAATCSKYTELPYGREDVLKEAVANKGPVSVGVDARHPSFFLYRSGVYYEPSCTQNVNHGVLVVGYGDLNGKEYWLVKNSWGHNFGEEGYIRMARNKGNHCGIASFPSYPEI

With `CC(C)C[C@H](Nc1cscc1-c1ccc(N2CCNCC2)cc1)C(=O)NCC#N`, the IC50 against Cathepsin B was 0.123 µM; against Cathepsin K [1] it was 0.0002 µM; against Cathepsin K [2] it was 0.001 µM; at Procathepsin L, 0.352 µM; against Cathepsin S, 0.102 µM. The molecule also yielded an Activity in assay [3] of 10 nM.
`CC(C)CC(Oc1ccccc1Br)C(=O)NCC#N` (stereo not given) yielded a concentration for half-maximal inhibition (IC50) on Cathepsin K [2] of 1.15 µM. This counts as single-digit micromolar.
Take `CC(C)C[C@H](Nc1ccc(-c2ccc(N3CCNCC3)cc2)cc1)C(=O)NCC#N`: the IC50 against Cathepsin B was 0.026 µM; on Cathepsin K [2], 0.027 µM; against Procathepsin L it was 0.115 µM; against Cathepsin S, 0.034 µM. In assay [3], this molecule displayed an Activity of 37 nM.
On to `CC(C)CC(Oc1cccc(Br)c1)C(=O)NCC#N` (stereo not given), for which, on Cathepsin K [2], 1.47 µM corresponded to half-maximal inhibition (IC50).
Same read-out and setting: for `CC(C)CC(Nc1ccc(Br)cc1)C(=O)NCC#N` (stereo not given) the value was 0.208 µM; for `CC(C)CC(Sc1ccc(Br)cc1)C(=O)NCC#N` (stereo not given), 0.675 µM.
Take `CC(C)C[C@H](Nc1cscc1Br)C(=O)NCC#N`: the IC50 at Cathepsin B worked out at 0.158 µM; against Cathepsin K [2] it was 0.043 µM; at Procathepsin L, 0.458 µM; on Cathepsin S, 0.897 µM. Also, the Activity in assay [3] amounted to 71 nM.
For the molecule `CC(C)C[C@H](Nc1cccc(-c2ccc(N3CCNCC3)cc2)c1)C(=O)NCC#N`, the IC50 is 0.093 µM on Cathepsin B, 0.002 µM on Cathepsin K [2], 0.108 µM against Procathepsin L and 0.024 µM against Cathepsin S. The Activity in assay [3] stood at 61 nM.
`CC(C)CC(Oc1ccc(Br)cc1)C(=O)NCC#N` (stereo not given): 3 µM corresponded to half-maximal inhibition at Cathepsin K [2] (IC50).
For `CC(C)CC(Cc1ccc(Br)cc1)C(=O)NCC#N` (stereo not given), the IC50 against Cathepsin K [2] came to 2.39 µM. The IC50 values of the last two molecules are within 1.5-fold of each other.
With `CC(C)CC(Nc1ccccc1Br)C(=O)NCC#N` (stereo not given), the IC50 against Cathepsin K [2] is 0.054 µM.
The same measure, in the same setting: for `CC(C)CC(Cc1cccc(Br)c1)C(=O)NCC#N` (stereo not given) the value was 3.39 µM.
Regarding `CC(C)C[C@H](Nc1ccccc1-c1ccc(N2CCNCC2)cc1)C(=O)NCC#N`, the IC50 at Cathepsin B amounted to 1.81 µM; against Cathepsin K [2], 0.003 µM; against Procathepsin L it was 2.1 µM; at Cathepsin S, 0.158 µM. Moreover, the Activity in assay [3] amounted to 9 nM.
In turn, `CC(C)CC(Cc1ccccc1Br)C(=O)NCC#N` (stereo not given) came in with an IC50 against Cathepsin K [2] of 2.35 µM.
For `CC(C)CC(Nc1cccc(Br)c1)C(=O)NCC#N` (stereo not given), inhibition against Cathepsin K [2] was half-maximal at 0.072 µM (IC50).
The molecule `CC(C)C[C@@H](C(=O)NCC#N)c1cccc(-c2ccc(N3CCNCC3)cc2)c1` gave an IC50 against Cathepsin K [2] of 0.011 µM. In assay [3], this molecule gave an Activity of 95 nM.
On to `CC(C)CC(Sc1ccccc1Br)C(=O)NCC#N` (stereo not given), for which half-maximal inhibition at Cathepsin K [2] (IC50) was put at 0.433 µM.
On the same count and under the same terms, under `CC(C)CC(Sc1cccc(Br)c1)C(=O)NCC#N` (stereo not given) stands 0.684 µM.

As a reminder, the IC50 is the concentration needed to halve the response being measured. Read a low IC50 as greater potency.

Values taken from ChEMBL document CHEMBL1137165, “Rational design of potent and selective NH-linked aryl/heteroaryl cathepsin K inhibitors” (Bioorg Med Chem Lett, 2004).
